The results in this text go back to patent US12624068B2, “Exon skipping by peptide nucleic acid derivatives” (OliPass Corporation, priority 2016, dated 2026).

In data set [1] the test system is mdx mice. Description: Unscheduled death, sacrifice or lymphoma in chronically treated mdx mice. The class given is in vivo, mouse. Conditions: DMD-ASO 1 50 pmole/Kg, DMD-ASO 2 or DMD-ASO 6 10 pmole/Kg, subcutaneous 2× per week, 66 weeks. The source says:
[Grouping & ASO Treatment] Male mdx mice (7 weeks old) were randomly assigned to 4 groups of 0 (mdx negative control), 10, 50, and 200 pmole/Kg “DMD-ASO 1” based on individual grip strength scores by grip test. (N=12 per group) A satellite group of 12 male C57BL/6 mice (7 weeks old) was included in this study as the wild type negative control group for the full-length dystrophin expression level.
The 50 and 200 pmole/Kg group subcutaneously received “DMD-ASO 1” as dissolved in PBS, 2× per week until the final sacrifice in Week 43. In the meantime, the 10 pmole/Kg group subcutaneously received “DMD-ASO 1” initially 2× per week during Week 0 to 8, and 3× per week afterwards to increase the ASO exposure.
[Miscellaneous Findings] There were three cases of unscheduled sacrifice or death (Weeks 26, 39 and 43) in the mdx negative control group due to a large mass of muscular lymphoma developed most likely by chronic muscular inflammation.
“DMD-ASO 1”, “DMD-ASO 2” and “DMD-ASO 6” were evaluated for their physiological effects in male mdx mice by long term subcutaneous administration. In this evaluation the animals were not subjected to physical tests requiring muscular stress in order to keep the transcription of the dystrophin gene undisturbed by excessive muscular stimulation.
[Animals & Grouping] Male mdx mice (6 weeks old) were randomly assigned to 4 groups of the mdx negative control (no ASO treatment), “DMD-ASO 1” 50 pmole/Kg, “DMD-ASO 2” […], and “DMD-ASO 6” […] based on the body weight. (N=12-13 per group) 12 male C57BL/6 mice (6 weeks old) were adopted as the wild type (WT) negative control group.
[Injection Solutions & ASO Treatment] Aqueous mother stock solutions of the ASOs were serially diluted in PBS to prepare the injection solutions of 25 nM “DMD-ASO 1” for 50 pmole/Kg “DMD-ASO 1”, 5 nM “DMD-ASO 2” for “DMD-ASO 2” 10 pmole/Kg, and 5 nM “DMD-ASO 6” for “DMD-ASO 6” 10 pmole/Kg. The animals were subcutaneously administered with the injection solutions at 2 mL/Kg, 2× per week.

The test system of data set [2] is serum myoglobin. The data set is described as follows: Serum myoglobin level in mdx mice. Conditions: DMD-ASO 1 50 pmole/Kg, DMD-ASO 2 or DMD-ASO 6 10 pmole/Kg, 2× per week, Week 66. The format is in vivo. How it is done: [Terminal Sacrifice] In Week 48, the animals were subjected to terminal sacrifice for blood sampling. The blood samples were analyzed for the serum level of CK (Creatine Kinase Activity Assay Kit, Cat. Number ab155901, Abcam) and myoglobin (Myoglobin ELISA Kit, Cat. Number ab210965, Abcam) to assess the degree of muscle degradation according to the manufacturer's instructions. Muscle tissues were analyzed by western blot for the full-length dystrophin.
[Terminal Sacrifice] All the survived animals were sacrificed for blood sampling in Week 66 post the grouping. The blood samples were subjected to ELISA assays for serum creatine kinase (CK) and serum myoglobin as described in “DMD Example 6”.

On to “Fethoc-C(12)TC-GG(6)C-TTA(6)-CC(1O2)T-GA(6)A-A(6)TT-NH2 (antisense CTCGGCTTACCTGAAATT; Fethoc N-cap, C-terminal amide, chemistry not fully specified) [DMD-ASO 6]”, for which the “premature deaths (unscheduled death or sacrifice)” value in data set [1] was “three premature deaths”. In data set [2], the “serum myoglobin level smaller than the mdx negative control group by” value was 68%.
